Reference: patent US20240325484A1, “COMPOSITION COMPRISING HORSE CHESTNUT EXTRACT” (ANGIOLAB, INC., priority 2021, published 2024)

System: RAW264.7 cells
Assay: Cytotoxicity assay (XTT, cell viability)
Settings: 4 days, at concentrations of 2.5, 5, 10, and 25 μM (FIG. 7 to FIG. 10)
Description: The cells were treated with 50 μl of XTT reagent per well, then reacted for four hours. An absorbance change thereof was measured at 490 nm and 650 nm (reference wavelength) by ELISA (enzyme linked immunosorbent assay) reader (Molecular Devices, USA), and a cell viability was expressed as a percentage.

With C[C@@H]1O[C@@H](Oc2c(-c3ccc(O)c(O)c3)oc3cc(O)cc(O)c3c2=O)[C@H](O)[C@H](O)[C@H]1O [quercitrin, Quercitrin] the cytotoxicity was “no cytotoxicity”.
